The target in experiment [1] is CXCL12WT self-association. Conditions: in 100 mM sodium phosphate; cited from earlier work.
Another experiment deals with CXCL12WT (Homo sapiens, UniProt P48061). To be noted: ΔG = −RT ln Kd @ 298 K, calculated from Veldkamp et al.; cited from earlier work.
A further experiment concerns the target CXCL12_1 (Homo sapiens, UniProt P48061, I79C/L76C). Put plainly: 2D 1H-15N HSQC NMR titration of CXCR4 peptides into CXCL12_1. Type of experiment: binding. Conditions: ΔG = −RT ln Kd @ 298 K.
In another experiment the target is CXCL12_2 (Homo sapiens, UniProt P48061, A86C/L57C). Put plainly: 2D 1H-15N HSQC NMR titration of CXCR4 peptides into CXCL12_2. In kind it is binding. To be noted: ΔG = −RT ln Kd @ 298 K.

Marks after values point to notes of the source that are not given here. No end group written: not given here.

Regarding “CXCL12WT: wild type chemokine CXCL12 (stromal cell-derived factor-1/SDF-1)”, the Kd of self-association in experiment [1] is listed as 140 µM.

For the substance “GMMEGISIYTSDNYTEEMGSGDYDSMKEPCFREENANFNK [CXCR4_1–38]”, the figures for the ΔG at CXCL12WT, on CXCL12_1 and at CXCL12_2 were −7.29 ^* kcal mol^−1, -7.43 kcal/mol and -8.24 kcal/mol, respectively.

Values taken from paper PMC3783652 (ACS chemical biology, 2013).
